{
  "source": "patent US20260070946A1",
  "about": "“TYR PEPTIDE COMPOSITIONS AND METHODS FOR USE” (UNIVERSITY OF MIAMI, priority 2022, published 2026)",
  "key": {"[1]": {"tested_on": "3D fibrosarcoma spheroids", "assay": "Self-renewal assay with 3D fibrosarcoma", "format": "cell-based"}, "[2]": {"tested_on": "Nanog", "assay": "Nanog mRNA expression in 3D HT1080 lysates", "format": "cell-based", "conditions": "3D lysates, TPA 20 μg/mL", "description": "(§1) Experiments herein (FIG. 13) indicated there was statistically significant inhibition in 3DHT1080 cell line for EZH2, and its targets, embryonic transcription factor Nanog (Villasante et al., Cell Cycle. 10 (9): 1488-498, 2011), and cancer stem cell marker […], ALDH1A1 (Li et al., Cancer Prev Res (Phila). 25 (3): 484-491 2012). Aldehyde dehydrogenase (ALDH) is an established marker of CSCs in several neoplasms. Cells expressing high levels of ALDH have been isolated in a number of human sarcoma cell lines, including the human chondrosarcoma SW 1353 cell line (Lohberger et al., PLOS One 7)."}, "[3]": {"tested_on": "HOXC13 proteins", "assay": "Inhibition of HOXC13 proteins"}, "[4]": {"conditions": "mouse, in vivo"}, "[5]": {"assay": "Acute and cumulative toxicity in mice"}, "[6]": {"tested_on": "cardiomyocyte cell line AC16", "assay": "Cardiotoxicity in cardiomyocyte cell line AC16", "format": "cell-based", "conditions": "24 hours; TPA 40 μg/mL, Doxo 2 mM", "experimental": "Cardiotoxicity results of TPA, Doxo and TPA+Doxo combo were analyzed in cardiomyocyte cell line AC16. Cells were treated 24 hours with C (control, DMSO 0.5%), TPA (40 μg/mL), Doxo (Doxorubicin, 2 mM), and TPA (40 μg/mL)+Doxo (2 mM). (FIG. 10). […] Thus, overall survival increases observed in vivo should be attributed to TPA's ability to target and eliminate cancer stem cells."}, "[7]": {"tested_on": "EZH2", "assay": "EZH2 mRNA expression in 3D HT1080 lysates", "format": "cell-based", "conditions": "3D lysates, TPA 20 μg/mL", "description": "as §1"}, "[8]": {"tested_on": "ALDHA", "assay": "ALDHA mRNA expression in 3D HT1080 lysates", "format": "cell-based", "conditions": "3D lysates, TPA 20 μg/mL", "description": "as §1"}, "[9]": {"tested_on": "Nanog protein", "assay": "Nanog protein expression in 3D HT1080 cells, western blot", "format": "cell-based", "conditions": "40 μg/ml"}, "[10]": {"tested_on": "chondrosarcoma and fibrosarcoma"}, "[11]": {"tested_on": "fibrosarcoma spheroids", "assay": "Neutral red cytotoxicity assay", "format": "cell-based"}, "[12]": {"tested_on": "osteosarcoma cell line KHOS", "assay": "Rapid cell proliferation assay, KHOS", "format": "cell-based", "conditions": "48 h", "experimental": "(§2) The effects of TPA on three osteosarcoma cell lines OSA, KHOS, MNNG was analyzed (FIG. 11). Rapid cell proliferation was measured by a Rapid Cell Proliferation Kit, EMD Biosciences (QIA127). Cells were seeded at 5×10^4 cells/100 μl culture in a multi-well plate and incubated overnight at 37° C. in 5% CO2 incubator. The actual assay was performed the next day. The rapid cell proliferation assay is based on the activity of mitochondrial enzymes active in viable cells. TPA was added to corresponding wells just after seeding, and before overnight incubation. The 96-well assay measures colorimetric product like formazan because of WST-1 tetrazolium salt cleavage by the mitochondrial dehydrogenases. TPA exerted its effect in all cell lines 48 hours after the incubation. […] (FIG. 11)"}, "[13]": {"tested_on": "HT1080 fibrosarcoma", "assay": "HT1080 fibrosarcoma nude mice model (IVIS, tumor volume, tumor weight)", "format": "in vivo", "experimental": "A nude mice model was used in which animals receive orthotopic inoculation of highly metastatic JJ012 chondrosarcoma or HT1080 fibrosarcoma tumor cell lines or primary cell lines labeled with extremely red bright fluorescent protein PTDT-N1.\nDisease progression is evaluated through clinical signs and animal-relevant responses, tumor size analysis, real-time fluorescence and bioluminescence imaging (IVIS) of both in vivo and ex vivo disease-specific tumor microenvironments and lung metastases.\nMonitoring of the solid tumors is as follows (when visible, tumors will be measured by noninvasive imaging or caliper at least weekly). Experimental endpoints depend on the site of transplantation. Mice are euthanized before they reach a tumor volume of 2 cm^3 for a single or multiple tumors. The overriding consideration for humane endpoints of these oncological experiments will be the overall health of the animal. Animals are weighed at least once a week for fast growing tumors (reaching endpoint before 3 months after transplantation) and at least once a month for slow growing tumors. Any tumor-bearing animal are euthanized immediately if the tumor impairs ambulation or eating. […] Animals bearing tumors in such locations are euthanized before the tumors reach the above-stated dimensions.\nTumor-bearing mice are photographed either at the experimental endpoint or using noninvasive imaging technologies to monitor tumor progression. Also contemplated is imaging in vivo for evidence of tumor progression (BLI, IVIS), and observance of clinical signs of metastases (listlessness, weight loss, or hunched posture). Tumors and lungs are harvested to confirm presence of lung metastases and further analyzed: tumors are weighed, photographed, and sectioned into samples designated half for 10% formalin fixation analysis or half for snap-freeze in liquid nitrogen for future analysis."}, "[14]": {"tested_on": "osteosarcoma cell line MNNG", "assay": "Rapid cell proliferation assay, MNNG", "format": "cell-based", "conditions": "only the highest dose of 40 μg/ml, 48 hours", "experimental": "as §2"}, "[15]": {"tested_on": "HT1080 fibrosarcoma cells", "assay": "Survival experiment with HT1080 cells derived from doxorubicin relapsed mice", "format": "in vivo", "experimental": "Additional survival experiments were undertaken. HT1080 fibrosarcoma cells were used in this experiment that derived from doxorubicin relapsed mice. The cells from tumor were excised as single cell suspension for quick isolation from tissue for subsequent luminescent labeling, then they were cultured in vitro and re-transplanted."}, "[16]": {"tested_on": "MDA 231 (ER-) breast cell carcinoma cells", "conditions": "cited from earlier work"}, "[17]": {"tested_on": "T47-D (ER+) cells", "conditions": "cited from earlier work"}, "[18]": {"tested_on": "HT1080 cells", "format": "cell-based, human", "description": "Analysis of anti-proliferative activity in HT1080 cells was examined."}, "[19]": {"tested_on": "HT1080 cells", "assay": "Rapid cell proliferation assay, HT1080, cyclic versus non-cyclic TPA", "format": "cell-based", "conditions": "40 μg/ml", "experimental": "Rapid cell proliferation assay was carried out using a Rapid Cell Proliferation Kit, EMD Biosciences (QIA127) (Galoian K, Tumor Biology 32 (4): 745-51, 2011). Cells were seeded at 5×10^4 cells/100 μl culture in the multi-well plate and incubated overnight at 37° C. in 5% CO2 incubator. The actual assay was performed the next day. The rapid cell proliferation assay is based on the activity of mitochondrial enzymes active in viable cells. PRP-1 was added to corresponding wells just after seeding, before overnight incubation. The colorimetric 96-well assay measures colorful product like formazan because of WST-1 tetrazolium salt cleavage by the mitochondrial dehydrogenases. The formazan formation is then quantified by measuring the change in absorbance at 450 nm in a microplate reader. The activity of mitochondrial dehydrogenases is proportional to cell number. No washing, harvesting, or solubilization steps are required. In this series of experiments, PRP-1 was added to corresponding wells immediately after seeding and cell attachment followed by overnight incubation according to the manufacturer's instructions.\nThe cyclic version was created to protect the peptide from being degraded by proteases in vivo. The cyclic peptide was tested for its potency in a rapid cell proliferation assay using HT1080 cells as described above using 40 μg/ml TPA or cyclic TPA in the assay."}},
  "note": "Where two headings read alike, the source gives them in different places. Residues, ends and D or L forms follow the SMILES beside them. No end group written: not given here.",
  "data": [
    {"compound": "SETPEPKGPADPELY [TPA, SETPEPKGPADPELY]", "values": [
      {"measurement": "effect on spheroids in comparison to not treated control", "setting": "[1]; 20 μg/ml", "value": "destruction and shrinkage of the spheroid"},
      {"measurement": "viability of the shrunken spheroids by viability assay", "setting": "[1]; 20 μg/ml", "value": "non viable"},
      {"measurement": "spheroid formation", "setting": "[1]; 40 μg/ml", "value": "completely prevented spheroid formation"},
      {"measurement": "Nanog mRNA fold decrease versus control", "setting": "[2]", "value": 7.69, "unit": "fold"},
      {"measurement": "reduced expression of Nanog", "setting": "[2]; normalized to GAPDH mRNA", "value": 87, "unit": "%"},
      {"measurement": "inhibition of HOXC13 proteins", "setting": "[3]", "value": "inhibits in a statistically significant manner"},
      {"measurement": "blood count and chemistry", "setting": "[4]", "value": "no change in blood count and chemistry"},
      {"measurement": "cumulative toxicity", "setting": "[5]; following 14 days of TPA treatment", "value": "no cumulative toxicity"},
      {"measurement": "acute toxicity (change in weight or behavior)", "setting": "[5]; up to 100 mg/kg", "value": "No acute toxicity"},
      {"measurement": "cytotoxicity in cardiomyocytes", "setting": "[6]", "value": "did not show any toxicity"},
      {"measurement": "EZH2 mRNA fold decrease versus control", "setting": "[7]", "value": 5, "unit": "fold"},
      {"measurement": "reduced expression of EZH2", "setting": "[7]; normalized to GAPDH mRNA", "value": 80, "unit": "%"},
      {"measurement": "ALDHA mRNA fold decrease versus control", "setting": "[8]", "value": 3.22, "unit": "fold"},
      {"measurement": "reduced expression of ALDHA", "setting": "[8]; normalized to GAPDH mRNA", "value": 69, "unit": "%"},
      {"measurement": "inhibition of Nanog protein in comparison with control", "setting": "[9]", "value": 47, "unit": "%"},
      {"measurement": "inhibition of chondrosarcoma and fibrosarcoma growth", "setting": "[10]", "value": "80-90%"},
      {"measurement": "cytotoxic effect relative to doxorubicin (DO)", "setting": "[11]; 40 μg/ml", "value": "almost that in cytotoxic doxorubicin"},
      {"measurement": "viability of fibrosarcoma spheroids", "setting": "[11]; increased concentration of TPA peptide", "value": "dose response decrease in viability"},
      {"measurement": "growth inhibition", "setting": "[12]", "value": 40, "unit": "%"},
      {"measurement": "tumor volume versus Control", "setting": "[13]; by day 18", "value": "trend toward decreased tumor volume"},
      {"measurement": "tumor weights at necropsy versus Control", "setting": "[13]; day after Day 14", "value": "no difference in tumor weights"},
      {"measurement": "IVIS tumor growth compared to Control", "setting": "[13]; through Day 14, IVIS % Growth p<0.001", "value": "decreased growth"},
      {"measurement": "growth inhibition", "setting": "[14]", "value": "inhibited growth"}
    ]},
    {"compound": "COc1cccc2c1C(=O)c1c(O)c3c(c(O)c1C2=O)C[C@@](O)(C(=O)CO)C[C@@H]3O[C@H]1C[C@H](N)[C@H](O)[C@H](C)O1", "note": "[doxorubicin]", "values": [
      {"measurement": "median survival", "setting": "[15]; 10 mice per group, control (PBS) 21 days", "value": 28, "unit": "days"},
      {"measurement": "overall Median Survival advantage", "setting": "[15]; mice re-transplanted with cells from doxorubicin relapsed tumors", "value": 33, "unit": "%"}
    ]},
    {"compound": "AGAPEPAEPAQPGVY [PRP-1]", "values": [
      {"measurement": "inhibition of cell growth", "setting": "[16]; 0.5 μg/ml PRP-1", "value": 71, "unit": "%"},
      {"measurement": "inhibition of cell growth", "setting": "[16]; 1 μg/ml PRP-1", "value": 63, "unit": "%"},
      {"measurement": "inhibition of cell growth", "setting": "[16]; 10 μg/ml", "value": 44, "unit": "%"},
      {"measurement": "inhibitory effect on cell growth", "setting": "[17]", "value": "no inhibitory effect"}
    ]},
    {"compound": "SETPEPKGPADPELY [TPA 1, SETPEPKGPADPELY]", "values": [
      {"measurement": "IC50, anti-proliferative activity", "setting": "[18]", "value": 21, "unit": "mg/L"},
      {"measurement": "concentration of maximum effect", "setting": "[18]; HT1080 human fibrosarcoma, dose response", "value": 40, "unit": "µg/mL"},
      {"measurement": "effect on cancer stem cell spheroids", "setting": "[18]; visual, maximum effect with 40 μg/ml", "value": "destruction of cancer stem cell spheroids in dose response manner"}
    ]},
    {"compound": "CC(C)C[C@@H]1NC(=O)[C@H](CCC(=O)O)NC(=O)[C@@H]2CCCN2C(=O)[C@H](CC(=O)O)NC(=O)[C@H](C)NC(=O)[C@@H]2CCCN2C(=O)CNC(=O)[C@H](CCCCN)NC(=O)[C@@H]2CCCN2C(=O)[C@H](CCC(=O)O)NC(=O)[C@@H]2CCCN2C(=O)[C@H]([C@@H](C)O)NC(=O)[C@H](CCC(=O)O)NC(=O)[C@H](CO)NC(=O)[C@H](Cc2ccc(OP(=O)(O)O)cc2)NC1=O", "note": "[cyclic TPA, Cyclo(Ser-Glu-Thr-Pro-Glu-Pro-Lys-Gly-Pro-Ala-Asp-Pro-Glu-Leu-Tyr (PO3H2))] (HELM PEPTIDE1{A.D.P.E.L.[O=C([C@H](Cc1ccc(OP(=O)(O)O)cc1)N[*:1])[*:2]].S.E.T.P.E.P.K.G.P}$PEPTIDE1,PEPTIDE1,1:R1-15:R2$$$V2.0)", "values": [
      {"measurement": "improvement over non-cyclic TPA", "setting": "[19]", "value": "~1.5", "unit": "fold"},
      {"measurement": "inhibition of cell growth compared to control", "setting": "[19]", "value": "over 50%"}
    ]}
  ]
}
